Values joined by “and” are separate entries in the source; they are usually repeats but may differ in a detail not shown here. Identical values can stand only once.
Legend:
[1] = test system: antibodies in the antisera; format: binding, Balb/c mice
[2] = test system: antibodies in the antisera; format: binding, Balb/c mice; remark: listed apart in the source

For `COc1cc2c(c3oc4cccc(O)c4c(=O)c13)[C@@H]1C=CO[C@@H]1O2` [aflatoxin biosynthetic precursor ST, Sterigmatocystin], the “IC50 value of the antibody for the aflatoxin biosynthetic precursor ST” value [1] was 0.41 ng/mL.

In the case of aflatoxin B2, the Absorbance [2] is reported as 1.08 and 1.06 and 0.99 and 1.07 and 1.01 and 1.02 and 1.04.

In the case of aflatoxin G1, the Absorbance [2] is reported as 1.07 and 1.05 and 1.01 and 0.98 and 1.04 and 1.09 and 1.11.

With aflatoxin G2 the Absorbance [2] was 1.03 and 1.04 and 1.05 and 1.01 and 1.09 and 1.02 and 1.10.

From patent publication US9718836B2 (priority 2014, dated 2017)
